Results on 33 molecules are retold here after patent US12492186B2, “Bicyclic heterocyclic compounds useful as IRAK4 inhibitors” (BRISTOL-MYERS SQUIBB COMPANY, priority 2019, dated 2025).

Chain of IRAK4 (Q9NWZ3 whole entry, species assumed): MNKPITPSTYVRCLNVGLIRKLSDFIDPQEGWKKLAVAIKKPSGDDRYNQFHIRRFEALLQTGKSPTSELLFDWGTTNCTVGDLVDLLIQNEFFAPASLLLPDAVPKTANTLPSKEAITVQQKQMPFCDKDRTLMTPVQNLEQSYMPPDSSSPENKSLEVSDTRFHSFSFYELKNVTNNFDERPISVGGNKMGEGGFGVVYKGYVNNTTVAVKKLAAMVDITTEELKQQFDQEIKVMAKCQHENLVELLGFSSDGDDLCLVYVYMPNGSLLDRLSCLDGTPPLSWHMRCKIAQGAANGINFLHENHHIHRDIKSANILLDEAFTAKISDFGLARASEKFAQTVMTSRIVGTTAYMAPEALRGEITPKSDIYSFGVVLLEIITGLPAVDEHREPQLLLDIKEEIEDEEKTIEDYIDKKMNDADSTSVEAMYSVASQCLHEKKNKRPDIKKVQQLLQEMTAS

This test deals with IRAK4 (Homo sapiens (Human), UniProt Q9NWZ3). Briefly: IRAK4 Inhibition Assay. The class given is biochemical. The conditions noted are these: ATP 500 μM; IRAK4 0.6 nM; 60 min room temperature; Caliper LABCHIP 3000. How it is done:
The assays were performed in U-bottom 384-well plates. The final assay volume was 30 μL prepared from 15 μL additions of enzyme and substrates (fluoresceinated peptide and ATP) and test compounds in assay buffer (20 mM HEPES pH 7.2, 10 mM MgCl2, 0.015% Brij 35 and 4 mM DTT). The reaction was initiated by the combination of IRAK4 with substrates and test compounds. The reaction mixture was incubated at room temperature for 60 min. and terminated by adding 45 μL of 35 mM EDTA to each sample. The reaction mixture was analyzed on the Caliper LABCHIP® 3000 (Caliper, Hopkinton, MA) by electrophoretic separation of the fluorescent substrate and phosphorylated product. Inhibition data were calculated by comparison to no enzyme control reactions for 100% inhibition and vehicle-only reactions for 0% inhibition. The final concentrations of reagents in the assays are ATP, 500 μM; FL-IPTSPITTTYFFFKKK peptide 1.5 μM; IRAK4, 0.6 nM; and DMSO, 1.6%.
On to `CC(C)Cc1nc(-c2cnc3ccc(-c4cn[nH]c4)cc3c2NC(C)C)n[nH]1` [Example 124, 3-(5-isobutyl-1H-1,2,4-triazol-3-yl)-N-isopropyl-6-(1H-pyrazol-4-yl)quinolin-4-amine], for which the half-maximal inhibitory concentration (IC50) came out at 107 nM.

Consider `CC(C)Nc1c(C(=O)NCCN2CCCCC2=O)cnc2ccc(-c3cn[nH]c3)cc12` [Example 86, 4-(isopropylamino)-N-(2-(2-oxopiperidin-1-yl)ethyl)-6-(1H-pyrazol-4-yl)quinoline-3-carboxamide], for which the IC50 was 28.6 nM. Under `CC(C)Nc1c(C(=O)NC2CN(S(C)(=O)=O)C2)cnc2ccc(-c3cn[nH]c3)cc12` [Example 92, 4-(isopropylamino)-N-(1-(methylsulfonyl)azetidin-3-yl)-6-(1H-pyrazol-4-yl)quinoline-3-carboxamide] stands 32.2 nM; under `CC(C)Nc1c(C(=O)NCC2(CO)COC2)cnc2ccc(-c3cn[nH]c3)cc12` [Example 20, N-((3-(hydroxymethyl)oxetan-3-yl)methyl)-4-(isopropylamino)-6-(1H-pyrazol-4-yl)quinoline-3-carboxamide], 48.9 nM; under `CC(C)Nc1c(C(=O)NCC2(CO)CC2)cnc2ccc(-c3cn[nH]c3)cc12` [Example 21, N-((1-(hydroxymethyl)cyclopropyl)methyl)-4-(isopropylamino)-6-(1H-pyrazol-4-yl)quinoline-3-carboxamide], 114 nM. For the molecule `CC(C)Nc1c(C(=O)NC[C@@H](F)C(C)(C)O)cnc2ccc(-c3cccc(C#N)c3)cc12` [Example 6, (R)-6-(3-cyanophenyl)-N-(2-fluoro-3-hydroxy-3-methylbutyl)-4-(isopropylamino) quinoline-3-carboxamide], the 50% inhibitory concentration (IC50) was determined as 145 nM. In the case of `CC(C)Nc1c(C(=O)NCCC(C)(C)O)cnc2ccc(-c3cncc(F)c3)cc12` [Example 72, 6-(5-fluoropyridin-3-yl)-N-(3-hydroxy-3-methylbutyl)-4-(isopropylamino)quinoline-3-carboxamide], the half-maximal inhibitory concentration (IC50) stood at 176 nM. Consider `Cc1cc(-c2ccc3ncc(C(=O)NCCC(C)(C)O)c(NC(C)C)c3c2)cnc1F` [Example 71, 6-(6-fluoro-5-methylpyridin-3-yl)-N-(3-hydroxy-3-methylbutyl)-4-(isopropylamino)quinoline-3-carboxamide], for which the IC50 came to 307 nM. Consider `O=C(NCCC(F)(F)F)c1cnc2ccc(-c3cn[nH]c3)cc2c1NCC(F)F` [Example 68, 4-((2,2-difluoroethyl)amino)-6-(1H-pyrazol-4-yl)-N-(3,3,3-trifluoropropyl)quinoline-3-carboxamide], for which the concentration for half-maximal inhibition (IC50) was 35.1 nM.

With `CC(O)CNc1c(C(=O)NC[C@@H](F)C(C)(C)O)cnc2ccc(-c3cncs3)cc12` (stereo partly drawn) [Example 32, N—((R)-2-fluoro-3-hydroxy-3-methylbutyl)-4-((2-hydroxypropyl)amino)-6-(thiazol-5-yl)quinoline-3-carboxamide], the half-inhibitory concentration (IC50) was 116 nM. In the case of `CC(=O)N[C@H]1CC[C@H](NC(=O)c2cnc3ccc(-c4cncc(C#N)c4)nc3c2NC(C)C)CC1` [Example 154, N-((1r,4r)-4-acetamidocyclohexyl)-6-(5-cyanopyridin-3-yl)-4-(isopropylamino)-1,5-naphthyridine-3-carboxamide] it was 92.7 nM; in that of `CC(C)Nc1c(C(=O)NCCC(C)(C)O)cnc2ccc(-c3ccncc3)nc12` [Example 145, N-(3-hydroxy-3-methylbutyl)-4-(isopropylamino)-6-(pyridin-4-yl)-1,5-naphthyridine-3-carboxamide], 24.2 nM.

As to `CC(C)Nc1c(C(=O)NCCC2CC2)cnc2ccc(Nc3cncc(F)c3)nc12` [Example 147, N-(2-cyclopropylethyl)-6-((5-fluoropyridin-3-yl)amino)-4-(isopropylamino)-1,5-naphthyridine-3-carboxamide], the IC50 was found to be 900 nM.

Consider `O=C(NCCC1CC1)c1cnc2ccc(-c3cn[nH]c3)cc2c1NC1CC(F)(F)C1` [Example 56, N-(2-cyclopropylethyl)-4-((3,3-difluorocyclobutyl)amino)-6-(1H-pyrazol-4-yl)quinoline-3-carboxamide], for which the IC50 was 19.7 nM. As for `CC(C)Nc1c(C(=O)NCCC(C)(C)O)cnc2ccc(-c3ccc(F)nc3)cc12` [Example 70, 6-(6-fluoropyridin-3-yl)-N-(3-hydroxy-3-methylbutyl)-4-(isopropylamino)quinoline-3-carboxamide], the IC50 stood at 119 nM. As for `CNc1c(C(N)=O)cnc2ccc(-c3cncs3)cc12` [Example 111, 4-(methylamino)-6-(thiazol-5-yl)quinoline-3-carboxamide], the IC50 stood at 1550 nM. Take `CC(C)Nc1c(C(=O)NC[C@@H](F)C(C)(C)O)cnc2ncc(-c3cn[nH]c3)cc12` [Example 161, (R)—N-(2-fluoro-3-hydroxy-3-methylbutyl)-4-(isopropylamino)-6-(1H-pyrazol-4-yl)-1,8-naphthyridine-3-carboxamide]: the half-inhibitory concentration (IC50) came out at 1210 nM. As to `CC(C)Nc1c(C(=O)NCCC(=O)N2CCCC2)cnc2ccc(-c3cn[nH]c3)cc12` [Example 50, 4-(isopropylamino)-N-(3-oxo-3-(pyrrolidin-1-yl)propyl)-6-(1H-pyrazol-4-yl)quinoline-3-carboxamide], the concentration for half-maximal inhibition (IC50) stood at 32.7 nM. Take `CC(C)Nc1c(C(=O)NC2CCCOC2)cnc2ccc(-c3cn[nH]c3)cc12` (stereo not drawn) [Example 8, 4-(isopropylamino)-6-(1H-pyrazol-4-yl)-N-(tetrahydro-2H-pyran-3-yl)quinoline-3-carboxamide]: the IC50 stood at 24.1 nM.

For `CC(C)(O)CCNc1c(C(N)=O)cnc2ccc(-c3cn[nH]c3)cc12` [Example 99, 4-((3-hydroxy-3-methylbutyl)amino)-6-(1H-pyrazol-4-yl)quinoline-3-carboxamide], the concentration for half-maximal inhibition (IC50) amounted to 264 nM. Under `O=C(NCCN1CCOCC1)c1cnc2ccc(-c3cn[nH]c3)cc2c1NCC(F)F` [Example 63, 4-((2,2-difluoroethyl)amino)-N-(2-morpholinoethyl)-6-(1H-pyrazol-4-yl)quinoline-3-carboxamide] stands 34.4 nM; under `CC(C)Nc1c(C(=O)NCCC(C)(C)O)cnc2ccc(-c3ccc(C#N)nc3)cc12` [Example 69, 6-(6-cyanopyridin-3-yl)-N-(3-hydroxy-3-methylbutyl)-4-(isopropylamino)quinoline-3-carboxamide], 131 nM; under `CNC(=O)CCNC(=O)c1cnc2ccc(-c3cn[nH]c3)cc2c1NCC(F)F` [Example 66, 4-((2,2-difluoroethyl)amino)-N-(3-(methylamino)-3-oxopropyl)-6-(1H-pyrazol-4-yl)quinoline-3-carboxamide], 60.7 nM.

Consider `CC(=O)N[C@H]1CC[C@H](NC(=O)c2cnc3ccc(-c4ccnc(C#N)c4)nc3c2NC(C)C)CC1` [Example 152, N-((1r,4r)-4-acetamidocyclohexyl)-6-(2-cyanopyridin-4-yl)-4-(isopropylamino)-1,5-naphthyridine-3-carboxamide], for which the 50% inhibitory concentration (IC50) came to 78 nM. For the molecule `CC(C)CCc1nc(-c2cnc3ccc(-c4cn[nH]c4)cc3c2NC(C)C)n[nH]1` [Example 126, 3-(5-isopentyl-1H-1,2,4-triazol-3-yl)-N-isopropyl-6-(1H-pyrazol-4-yl)quinolin-4-amine], the IC50 came out at 34.4 nM. In the case of `O=C(NCCC(F)(F)F)c1cnc2ccc(-c3cn[nH]c3)cc2c1NC1CC(F)(F)C1` [Example 55, 4-((3,3-difluorocyclobutyl)amino)-6-(1H-pyrazol-4-yl)-N-(3,3,3-trifluoropropyl)quinoline-3-carboxamide] it was 53.1 nM; in that of `CC(C)(O)[C@H](F)CNC(=O)c1cnc2ccc(-c3cncs3)cc2c1NC1COC1` [Example 35, (R)—N-(2-fluoro-3-hydroxy-3-methylbutyl)-4-(oxetan-3-ylamino)-6-(thiazol-5-yl) quinoline-3-carboxamide], 78 nM; in that of `CC(=O)N1CCCC1CCNC(=O)c1cnc2ccc(-c3cn[nH]c3)cc2c1NC(C)C` (stereo not drawn) [Example 85, N-(2-(1-acetylpyrrolidin-2-yl)ethyl)-4-(isopropylamino)-6-(1H-pyrazol-4-yl) quinoline-3-carboxamide], 20.7 nM. For `COCCNC(=O)c1cnc2ccc(-c3cn[nH]c3)cc2c1NC(C)C` [Example 18, 4-(isopropylamino)-N-(2-methoxyethyl)-6-(1H-pyrazol-4-yl)quinoline-3-carboxamide], the 50% inhibitory concentration (IC50) is 28 nM. For `CC(C)Nc1c(C(=O)NCCc2ncn[nH]2)cnc2ccc(-c3cn[nH]c3)cc12` [Example 104, N-(2-(1H-1,2,4-triazol-5-yl)ethyl)-4-(isopropylamino)-6-(1H-pyrazol-4-yl) quinoline-3-carboxamide], the IC50 came out at 35.4 nM. As for `CC(C)Nc1c(C(=O)N[C@H]2C[C@H](O)C2)cnc2ccc(-c3cn[nH]c3)cc12` [Example 60, N-((1r,3r)-3-hydroxycyclobutyl)-4-(isopropylamino)-6-(1H-pyrazol-4-yl)quinoline-3-carboxamide], the IC50 stood at 38 nM. In the case of `CC(C)Nc1c(C(=O)NCCC(C)(C)O)cnc2ccc(-c3ccc(F)nc3F)cc12` [Example 73, 6-(2,6-difluoropyridin-3-yl)-N-(3-hydroxy-3-methylbutyl)-4-(isopropylamino)quinoline-3-carboxamide] it was 51.2 nM; in that of `Cc1cc(CNC(=O)c2cnc3ccc(-c4cn[nH]c4)cc3c2NC(C)C)on1` [Example 16, 4-(isopropylamino)-N-((3-methylisoxazol-5-yl)methyl)-6-(1H-pyrazol-4-yl)quinoline-3-carboxamide], 40.2 nM.

The term IC50 denotes the concentration needed to halve the response being measured.
